According to US7858635B2 (priority 2005, dated 2010):
Read-outs that look alike come from different tables or passages of the source.

How the values were obtained:
[1] = biological target: T1, M1 muscarinic receptor (Homo sapiens, UniProt P11229); test: Functional mobilization of intracellular calcium (FLIPR, Fluo-3), M1-CHO cells; type: cell-based; settings: for Emax: read-out: M1 Efficacy
T1 construct: expressed in transfected cells; host or cells: CHO cells (M1-CHO, under zeocin and G418 selection)
T1 sequence (P11229 1-460): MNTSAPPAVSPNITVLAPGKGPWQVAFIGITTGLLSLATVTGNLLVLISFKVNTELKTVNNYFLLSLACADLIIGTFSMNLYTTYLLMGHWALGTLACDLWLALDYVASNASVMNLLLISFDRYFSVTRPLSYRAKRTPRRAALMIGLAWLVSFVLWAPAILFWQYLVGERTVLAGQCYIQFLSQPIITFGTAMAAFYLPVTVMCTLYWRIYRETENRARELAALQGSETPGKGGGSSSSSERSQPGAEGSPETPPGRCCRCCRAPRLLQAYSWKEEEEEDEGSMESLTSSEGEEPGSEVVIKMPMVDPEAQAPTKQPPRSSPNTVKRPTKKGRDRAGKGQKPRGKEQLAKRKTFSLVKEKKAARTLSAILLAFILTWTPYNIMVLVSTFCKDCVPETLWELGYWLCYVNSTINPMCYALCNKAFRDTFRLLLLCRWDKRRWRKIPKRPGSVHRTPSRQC
Summary of the method: (§1)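 Fluo-3 read-out, ex 488/em 540 nm, 60 sec on FLIPR 3. For agonist mode, compound added directly; for inhibition, 15 min compound pre-incubation before carbachol at EC80 (added as a 3× solution), or co-application. Buffer pH 7.4 with 1 mM probenecid; DMSO 0.5%.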

[2] = biological target: T2, M4 muscarinic receptor (Homo sapiens, UniProt P08173); test: Functional mobilization of intracellular calcium (FLIPR, Fluo-3), M4-CHO cells; type: cell-based; settings: for Emax: read-out: M4 Efficacy
T2 construct: expressed in transfected cells; host or cells: CHO cells (M4-CHO, under puromycin, zeocin and blasticidin selection)
T2 sequence (P08173 1-479): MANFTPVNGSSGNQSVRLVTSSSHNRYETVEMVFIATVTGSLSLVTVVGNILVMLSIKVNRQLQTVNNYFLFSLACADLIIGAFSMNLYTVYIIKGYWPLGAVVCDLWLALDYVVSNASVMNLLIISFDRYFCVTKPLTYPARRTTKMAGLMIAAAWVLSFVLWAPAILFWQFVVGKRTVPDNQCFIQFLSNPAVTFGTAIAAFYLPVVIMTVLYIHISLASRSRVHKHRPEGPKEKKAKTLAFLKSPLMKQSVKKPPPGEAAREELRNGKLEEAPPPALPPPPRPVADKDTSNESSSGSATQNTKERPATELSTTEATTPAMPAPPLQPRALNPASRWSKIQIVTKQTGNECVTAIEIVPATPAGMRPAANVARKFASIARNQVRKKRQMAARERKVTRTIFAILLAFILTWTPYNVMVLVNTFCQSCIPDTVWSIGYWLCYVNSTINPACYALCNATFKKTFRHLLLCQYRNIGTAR
Summary of the method: as §1

[3] = compound nos. 1-454, 100% efficacy is the maximum response obtained with the Carbachol control
[4] = compound nos. 1-454, M1-CHO cells, calcium mobilization
[5] = compound nos. 1-454, M4-CHO cells, calcium mobilization
[6] = compound nos. 455-509, 100% efficacy is the maximum response obtained with the Carbachol control

SMILES	Emax [1, 3] [%]	M1 Activity [1, 4]	Emax [2, 3] [%]	M4 Activity [2, 5]	other results
Cc1ccc2c(c1)C1(CCN(C3CC4CCC3C4)CC1)CN2C(=O)c1cc(C)on1 (stereo not drawn) [compound 208]	< 65	++ (activity was measured to be between 0.7 μM and 3.0 μM)	< 55	+ (activity was measured to be greater than or equal to 4.0 μM)	–
CN(C)C(=O)N1CCC2(CCN(C3CCN(c4cnccn4)CC3)CC2)c2ccccc21 [compound 457]	–	–	–	–	Emax [1, 6]: > 100%; M1 Activity ([1]; compounds 455-509): +++ (activity was measured to be less than or equal to 2.0 μM); Emax [2, 6]: 25 to 100%; M4 Activity ([2]; compounds 455-509): ++ (activity was measured to be between 2.0 μM and 5.0 μM)
Cc1ccc2c(c1)C1(CCN(C3CC4CCC3C4)CC1)CN2 (stereo not drawn) [compound 350]	> 85	+++ (activity was measured to be less than or equal to 0.7 μM)	> 70	+++ (activity was measured to be less than or equal to 0.1 μM)	–
CC(=O)N1CC2(CCN(CC3CCCCC3)CC2)c2cc(F)ccc21 [compound 393]	65 to 85	–	< 55	–	M1 Activity ([1]; compound nos. 1-454): +++ (activity was measured to be less than or equal to 0.7 μM); M4 Activity ([2]; compound nos. 1-454): + (activity was measured to be greater than or equal to 4.0 μM)
CCOC(=O)N1CCC(N2CCC3(CC2)CN(C(=O)c2ccccc2)c2ccc(F)cc23)CC1 [compound 384]	< 65	–	< 55	–	M1 Activity ([1]; compound nos. 1-454): ++ (activity was measured to be between 0.7 μM and 3.0 μM); M4 Activity ([2]; compound nos. 1-454): + (activity was measured to be greater than or equal to 4.0 μM)
CCOC(=O)N1C2CCC1CC(N1CCC3(CC1)CNc1ccc(Cl)cc13)C2 (stereo not drawn) [compound 351]	65 to 85	+++ (activity was measured to be less than or equal to 0.7 μM)	> 70	++ (activity was measured to be between 0.1 μM and 4.0 μM)	–
COC(=O)N1CC2(CCN(C3CC4CCC(C3)N4C(=O)OC(C)C)CC2)c2cc(F)ccc21 (stereo not drawn) [compound 97]	65 to 85	+++ (activity was measured to be less than or equal to 0.7 μM)	< 55	+ (activity was measured to be greater than or equal to 4.0 μM)	–
CN(C)C(=O)N1CC2(CCN(C3CCN(c4nccs4)CC3)CC2)c2cc(F)ccc21 [compound 447]	65 to 85	–	55 to 70	–	M1 Activity ([1]; compound nos. 1-454): +++ (activity was measured to be less than or equal to 0.7 μM); M4 Activity ([2]; compound nos. 1-454): +++ (activity was measured to be less than or equal to 0.1 μM)
CC(=O)N1CC2(CCN(C3CCN(C(=O)OC(C)C)CC3)CC2)c2cc(C)ccc21 [compound 380]	65 to 85	–	55 to 70	–	M1 Activity ([1]; compound nos. 1-454): +++ (activity was measured to be less than or equal to 0.7 μM); M4 Activity ([2]; compound nos. 1-454): ++ (activity was measured to be between 0.1 μM and 4.0 μM)
CC(C)(C)COC(=O)N1C2CCC1CC(N1CCC3(CC1)COc1ccc(F)cc13)C2 (stereo not drawn) [compound 247]	65 to 85	++ (activity was measured to be between 0.7 μM and 3.0 μM)	> 70	+ (activity was measured to be greater than or equal to 4.0 μM)	–
Fc1ccc2c(c1)C1(CCN(C[C@H]3C[C@H]4C=C[C@H]3C4)CC1)CO2 [compound 376]	65 to 85	–	55 to 70	–	M1 Activity ([1]; compound nos. 1-454): +++ (activity was measured to be less than or equal to 0.7 μM); M4 Activity ([2]; compound nos. 1-454): + (activity was measured to be greater than or equal to 4.0 μM)
CCc1nsc(N2CCC(N3CCC4(CCN(C(C)=O)c5ccccc54)CC3)CC2)n1 [compound 489]	–	–	–	–	Emax [1, 6]: > 100%; M1 Activity ([1]; compounds 455-509): +++ (activity was measured to be less than or equal to 2.0 μM); Emax [2, 6]: 25 to 100%; M4 Activity ([2]; compounds 455-509): ++ (activity was measured to be between 2.0 μM and 5.0 μM)
CCOC(=O)N1C2CCC1CC(N1CCC3(CC1)CN(C(C)=O)c1ccc(C)cc13)C2 (stereo not drawn) [compound 9]	65 to 85	+++ (activity was measured to be less than or equal to 0.7 μM)	55 to 70	+ (activity was measured to be greater than or equal to 4.0 μM)	–
CCOC(=O)N1C2CCC1CC(N1CCC3(CC1)CN(C(=O)Oc1ccc(F)cc1)c1ccc(F)cc13)C2 (stereo not drawn) [compound 298]	–	+ (activity was measured to be greater than or equal to 3.0 μM)	–	+ (activity was measured to be greater than or equal to 4.0 μM)	Emax [1]: < 65%; Emax [2]: 55 to 70%
O=C(OC1CCCC1)N1C2CCC1CC(N1CCC3(CC1)COc1ccc(F)cc13)C2 (stereo not drawn) [compound 133]	> 85	+++ (activity was measured to be less than or equal to 0.7 μM)	55 to 70	++ (activity was measured to be between 0.1 μM and 4.0 μM)	–
O=C(OC1CCCC1)N1C2CCC1CC(N1CCC3(CCc4ccccc43)CC1)C2 (stereo not drawn) [compound 258]	65 to 85	+ (activity was measured to be greater than or equal to 3.0 μM)	< 55	+ (activity was measured to be greater than or equal to 4.0 μM)	–
Fc1ccc2c(c1)C1(CCN(C3CCCCC3)CC1)CN2 [compound 325]	65 to 85	+ (activity was measured to be greater than or equal to 3.0 μM)	< 55	+ (activity was measured to be greater than or equal to 4.0 μM)	–
CCOC(=O)N1CCC(N2CCC3(CC2)C[C@H](NC(C)=O)c2ccccc23)CC1 [compound 61]	–	+++ (activity was measured to be less than or equal to 0.7 μM)	–	++ (activity was measured to be between 0.1 μM and 4.0 μM)	M1 Efficacy [1, 3]: ++ (efficacy was calculated to be between 85% and 65%); M4 Efficacy [2, 3]: ++ (efficacy was calculated to be between 70% and 55%)
CCCC1CCC(N2CCC3(CC2)CN(C(C)=O)c2ccc(F)cc23)CC1 (stereo not drawn) [compound 131]	65 to 85	+++ (activity was measured to be less than or equal to 0.7 μM)	> 70	++ (activity was measured to be between 0.1 μM and 4.0 μM)	–
CCOC(=O)N1CCC(N2CCC3(CC2)CN(C(C)=O)c2ccc(-c4ccc(OC)cc4)cc23)CC1 [compound 193]	< 65	+ (activity was measured to be greater than or equal to 3.0 μM)	< 55	+ (activity was measured to be greater than or equal to 4.0 μM)	–
COC(=O)N1CCC(N2CCC3(CC2)CN(C(C)=O)c2ccc(F)cc23)CC1 [compound 374]	65 to 85	++ (activity was measured to be between 0.7 μM and 3.0 μM)	55 to 70	+ (activity was measured to be greater than or equal to 4.0 μM)	–
